Source: patent US10981854B2 (SYMRISE AG, priority 2016, dated 2021)

Columns and labels:
Aspergillus brasiliensis = conditions: when used in cosmetics; Daily Chemical Industry 2015, 45:269; cited from earlier work
Pseudomonas aeruginosa = conditions: when used in cosmetics; Daily Chemical Industry 2015, 45:269; cited from earlier work
[1] = Solubility test c): 4-HAP + 3 wt. % 1,2-pentanediol (Hydrolite 5) + 5 wt. % glycerin in cold water; type: physicochemical
[2] = Solubility test d): 4-HAP + 3 wt. % 1,2-pentanediol (Hydrolite 5) + 5 wt. % glycerin in warm water; type: physicochemical; conditions: for dissolution result: heating up to 50° C. and cooling down while stirring; for crystals on storage: stored at 5° C. and room temperature, after 24 h
[3] = Solubility test e): 4-HAP + 5 wt. % 1,2-pentanediol (Hydrolite 5) in cold water; type: physicochemical; conditions: for dissolution result: after ca. 50 min
[4] = General properties: behaviour when put into water; type: physicochemical; conditions: solid put into water in a beaker
[5] = 0.5 wt. % 4-HAP + 3 wt. % 1,2-pentanediol + 5 wt. % glycerin
[6] = 1 wt. % 4-HAP + 3 wt. % 1,2-pentanediol + 5 wt. % glycerin
[7] = 0.5 wt. % 4-HAP + 5 wt. % 1,2-pentanediol
[8] = 1 wt. % 4-HAP + 5 wt. % 1,2-pentanediol

Compound	ability to kill Aspergillus brasiliensis (Aspergillus brasiliensis)	ability to restrain Pseudomonas aeruginosa (Pseudomonas aeruginosa)	storage time after which crystallization/precipitation [1, 5]	time until solved completely [1, 5]	time until solved completely [1, 6]	crystallization/precipitation on storage ([1]; 1 wt. % 4-HAP + 3 wt. % 1,2-pentanediol + 5 wt. % glycerin, after 24 h of storage)	dissolution result [2, 5]	crystals on storage [2, 5]	dissolution result [2, 6]	crystals on storage [2, 6]	time until solved completely [3, 7]	crystallization/precipitation on storage ([3]; 0.5 wt. % 4-HAP + 5 wt. % 1,2-pentanediol, after 24 h of storage)	time until solved completely [3, 8]	storage time after which crystallization ([3]; 1 wt. % 4-HAP + 5 wt. % 1,2-pentanediol, stored at 5° C.)	behaviour when put into water [4]	dissolution result ([1]; 1 wt. % 4-HAP + 3 wt. % 1,2-pentanediol + 5 wt. % glycerin, after stirring for 60 min)	dissolution result [3, 7]	dissolution result [3, 8]
CC(=O)c1ccc(O)cc1 [4-hydroxyacetophenone]	great ability to kill	certain ability to restrain																
CC(=O)c1ccc(O)cc1 [Example 3, 4-hydroxyacetophenone]			48 h	ca. 50 min	ca. 50 min	no crystallization/precipitation	solved completely	no crystals	solved completely	no crystals	ca. 50 min	no crystallization/precipitation	ca. 50 min	24 h	distributes on the surface and slowly falls to the ground of the beaker			
CC(=O)c1ccc(O)cc1 [Example 4, 4-hydroxyacetophenone]			48 h	ca. 50 min			solved completely	no crystals	solved completely	no crystals					agglomerates and sinks to the ground	a few lumps of solid left undissolved	a few little lumps of solid left undissolved	lumps of solid left undissolved
